ChEMBL document CHEMBL4028869, “Synthesis and Bioevaluation of Macrocycle-Polyamine Conjugates as Cell Migration Inhibitors” (J Med Chem, 2017)
pIC50: −log10 of the molar value.

Legend:
[1] = Antimigratory activity against human L3.6p1 cells at 0.5 uM after 24 hrs in presence of amine oxidase inhibitor aminoguanidine by scratch assay relative to control; assay type: functional; conditions: L3.6p1, 24 h
[2] = Antimigratory activity against human L3.6p1 cells at 1 uM after 24 hrs in presence of amine oxidase inhibitor aminoguanidine by scratch assay relative to control; assay type: functional; conditions: L3.6p1, 24 h
[3] = Antiproliferative activity against human L3.6p1 cells after 48 hrs in presence of amine oxidase inhibitor aminoguanidine by MTS assay; assay type: functional, cell-based; conditions: for pIC50: Homo sapiens, L3.6p1, 48 h
[4] = Substrate activity at PTS in CHO cells assessed as reduction in cell viability after 48 hrs in presence of aminoguanidine by MTS assay; assay type: cell-based; conditions: Cricetulus griseus
[5] = Selectivity ratio of IC50 for CHO-MG cells to IC50 for PTS in CHO cells; parameters: species or system Cricetulus griseus
CHO-MG = assay: Cytotoxicity against CHO-MG cells assessed as reduction in cell viability after 48 hrs in presence of aminoguanidine by MTS assay; assay type: cell-based; conditions: Cricetulus griseus
[6] = Modulation of sphingomyelin pool in human L3.6p1 cells assessed as N16:0 level per mg protein at 500 nM after 48 hrs (reference value: 2.60 +/- 0.06 nmol); assay type: functional
[7] = Modulation of sphingomyelin pool in human L3.6p1 cells assessed as N20:0 level per mg protein at 500 nM after 48 hrs (reference value: 0.06 +/- 0.01 nmol); assay type: functional
[8] = Modulation of sphingomyelin pool in human L3.6p1 cells assessed as N24:0 level per mg protein at 500 nM after 48 hrs (reference value: 0.32 +/- 0.01 nmol); assay type: functional
[9] = Modulation of ceramide pool in human L3.6p1 cells assessed as total ceramide level per mg protein at 500 nM after 48 hrs (reference value: 0.62 +/- 0.10 nmol); assay type: functional
[10] = Modulation of sphingomyelin pool in human L3.6p1 cells assessed as N26:1 level per mg protein at 500 nM after 48 hrs (reference value: 0.02 nmol); assay type: functional
[11] = Modulation of sphingomyelin pool in human L3.6p1 cells assessed as total sphingomyelin level per mg protein at 500 nM after 48 hrs (reference value: 5.91 +/- 0.11 nmol); assay type: functional
[12] = Modulation of sphingomyelin pool in human L3.6p1 cells assessed as N23:0 level per mg protein at 500 nM after 48 hrs (reference value: 0.07 nmol); assay type: functional
[13] = Modulation of ceramide pool in human L3.6p1 cells assessed as N16:0 level per mg protein at 500 nM after 48 hrs (reference value: 0.08 +/- 0.01 nmol); assay type: functional
[14] = Modulation of sphingomyelin pool in human L3.6p1 cells assessed as N15:0 level per mg protein at 500 nM after 48 hrs (reference value: 0.12 nmol); assay type: functional
[15] = Modulation of sphingomyelin pool in human L3.6p1 cells assessed as N20:1 level per mg protein at 500 nM after 48 hrs (reference value: 0.02 nmol); assay type: functional
[16] = Modulation of sphingomyelin pool in human L3.6p1 cells assessed as N18:0 level per mg protein at 500 nM after 48 hrs (reference value: 0.19 +/- 0.01 nmol); assay type: functional
[17] = Modulation of ceramide pool in human L3.6p1 cells assessed as N24:1 level per mg protein at 500 nM after 48 hrs (reference value: 0.37 +/- 0.06 nmol); assay type: functional
[18] = Modulation of sphingomyelin pool in human L3.6p1 cells assessed as N24:1 level per mg protein at 500 nM after 48 hrs (reference value: 1.07 +/- 0.03 nmol); assay type: functional
[19] = Modulation of sphingomyelin pool in human L3.6p1 cells assessed as N17:0 level per mg protein at 500 nM after 48 hrs (reference value: 0.05 +/- 0.01 nmol); assay type: functional
[20] = Modulation of sphingomyelin pool in human L3.6p1 cells assessed as N18:1 level per mg protein at 500 nM after 48 hrs (reference value: 0.07 nmol); assay type: functional
[21] = Modulation of sphingomyelin pool in human L3.6p1 cells assessed as N21:0 level per mg protein at 500 nM after 48 hrs (reference value: 0.03 nmol); assay type: functional
[22] = Modulation of sphingomyelin pool in human L3.6p1 cells assessed as N22:2 level per mg protein at 500 nM after 48 hrs (reference value: 0.01 nmol); assay type: functional
[23] = Modulation of sphingomyelin pool in human L3.6p1 cells assessed as N25:1 level per mg protein at 500 nM after 48 hrs (reference value: 0.02 +/- 0.01 nmol); assay type: functional
[24] = Modulation of sphingomyelin pool in human L3.6p1 cells assessed as N23:2 level per mg protein at 500 nM after 48 hrs (reference value: 0.01 nmol); assay type: functional
[25] = Modulation of sphingomyelin pool in human L3.6p1 cells assessed as N25:0 level per mg protein at 500 nM after 48 hrs (reference value: 0.01 nmol); assay type: functional
[26] = Modulation of sphingomyelin pool in human L3.6p1 cells assessed as N24:2 level per mg protein at 500 nM after 48 hrs (reference value: 0.30 +/- 0.01 nmol); assay type: functional
[27] = Modulation of sphingomyelin pool in human L3.6p1 cells assessed as N14:0 level per mg protein at 500 nM after 48 hrs (reference value: 0.13 +/- 0.01 nmol); assay type: functional
[28] = Modulation of sphingomyelin pool in human L3.6p1 cells assessed as N16:1 level per mg protein at 500 nM after 48 hrs (reference value: 0.28 +/- 0.01 nmol); assay type: functional
[29] = Modulation of sphingomyelin pool in human L3.6p1 cells assessed as N19:0 level per mg protein at 500 nM after 48 hrs (reference value: 0.01 nmol); assay type: functional
[30] = Modulation of sphingomyelin pool in human L3.6p1 cells assessed as N22:0 level per mg protein at 500 nM after 48 hrs (reference value: 0.23 +/- 0.01 nmol); assay type: functional
[31] = Modulation of sphingomyelin pool in human L3.6p1 cells assessed as N23:1 level per mg protein at 500 nM after 48 hrs (reference value: 0.10 nmol); assay type: functional
[32] = Modulation of ceramide pool in human L3.6p1 cells assessed as N24:0 level per mg protein at 500 nM after 48 hrs (reference value: 0.16 +/- 0.04 nmol); assay type: functional
[33] = Modulation of sphingomyelin pool in human L3.6p1 cells assessed as N22:1 level per mg protein at 500 nM after 48 hrs (reference value: 0.17 +/- 0.01 nmol); assay type: functional
Mus musculus [34] = organism: Mus musculus; assay: Increase in SGMS activity in mouse PancO2 cell lysates assessed as induction of NBD-sphingomyelin production at 0.5 uM using C12-NBD-ceramide substrate after 72 hrs by TLC relative to control
Mus musculus [35] = organism: Mus musculus; assay: Increase in SGMS activity in mouse PancO2 cell lysates assessed as induction of NBD-sphingomyelin production at 1 uM using C12-NBD-ceramide substrate after 72 hrs by TLC relative to control
[36] = Solubility in water; assay type: physicochemical; conditions: buffer

## Cl.Cl.Cl.NCCCNCCCNCCC1CCCCCCCCCCCCCC1
[1]
  inhibition at 0.5 µM: -15.5%
[2]
  inhibition at 1 µM: 1.5%
[3]
  IC5: 1.64 µM
  pIC50: 5.48
[4]
  pIC50: 5.60
[5]
  Ratio IC50: 1.1
CHO-MG
  pIC50: 5.55

## Cl.Cl.Cl.Cl.NCCNCCNCCNCC1CCCCCCCCCCCCCC1
[6]
  Activity: 2.66 nmol
[7]
  Activity: 0.08 nmol
[8]
  Activity: 0.32 nmol
[9]
  Activity: 0.49 nmol
[1]
  inhibition at 0.5 µM: 6.1%
[10]
  Activity: 0.03 nmol
[11]
  Activity: 6.25 nmol
[12]
  Activity: 0.08 nmol
[13]
  Activity: 0.09 nmol
[14]
  Activity: 0.12 nmol
[2]
  inhibition at 1 µM: 16.8%
[15]
  Activity: 0.02 nmol
[16]
  Activity: 0.24 nmol
[17]
  Activity: 0.28 nmol
[18]
  Activity: 1.15 nmol
[3]
  IC5: 0.92 µM
  pIC50: 5.79
[19]
  Activity: 0.05 nmol
[20]
  Activity: 0.09 nmol
[21]
  Activity: 0.03 nmol
[4]
  pIC50: 5.63
[22]
  Activity: 0.02 nmol
[23]
  Activity: 0.02 nmol
[24]
  Activity: 0.01 nmol
[25]
  Activity: 0.02 nmol
[26]
  Activity: 0.31 nmol
[27]
  Activity: 0.13 nmol
[28]
  Activity: 0.28 nmol
[29]
  Activity: 0.01 nmol
[30]
  Activity: 0.28 nmol
[31]
  Activity: 0.11 nmol
[32]
  Activity: 0.11 nmol
[5]
  Ratio IC50: 1.1
CHO-MG
  pIC50: 5.58
[33]
  Activity: 0.19 nmol

## Cl.Cl.Cl.NCCCNCCCNC1CCCCCCCCCCCCCC1
Mus musculus [34]
  Activity: 75%
Mus musculus [35]
  Activity: 82%
[5]
  Ratio IC50: 2.1

## Cl.Cl.Cl.NCCNCCNCC1CCCCCCCCCCCCCC1
[1]
  inhibition at 0.5 µM: 10.2%
[2]
  inhibition at 1 µM: 26.8%
[3]
  IC5: 0.6 µM
  pIC50: 5.90
[4]
  pIC50: 5.61
[5]
  Ratio IC50: 1
CHO-MG
  pIC50: 5.59

## Cl.Cl.Cl.NCCCNCCCN1CCCCCCCCCCCCCC1
[6]
  Activity: 3.26 nmol
[7]
  Activity: 0.1 nmol
Mus musculus [34]
  Activity: 89%
[8]
  Activity: 0.39 nmol
[9]
  Activity: 0.89 nmol
[1]
  inhibition at 0.5 µM: 20.6%
[10]
  Activity: 0.04 nmol
[11]
  Activity: 7.84 nmol
[12]
  Activity: 0.1 nmol
[13]
  Activity: 0.17 nmol
[14]
  Activity: 0.14 nmol
[2]
  inhibition at 1 µM: 39.8%
[15]
  Activity: 0.03 nmol
[16]
  Activity: 0.32 nmol
[17]
  Activity: 0.51 nmol
[18]
  Activity: 1.49 nmol
[3]
  IC5: 0.6 µM
  pIC50: 6.00
[19]
  Activity: 0.06 nmol
[20]
  Activity: 0.11 nmol
[21]
  Activity: 0.05 nmol
[22]
  Activity: 0.02 nmol
[23]
  Activity: 0.03 nmol
[24]
  Activity: 0.01 nmol
[25]
  Activity: 0.03 nmol
Mus musculus [35]
  Activity: 75%
[26]
  Activity: 0.41 nmol
[27]
  Activity: 0.14 nmol
[28]
  Activity: 0.33 nmol
[29]
  Activity: 0.01 nmol
[30]
  Activity: 0.35 nmol
[31]
  Activity: 0.14 nmol
[32]
  Activity: 0.2 nmol
[5]
  Ratio IC50: 1
[33]
  Activity: 0.27 nmol

## Cl.Cl.NCCNCc1c2ccccc2cc2ccccc12
[1]
  inhibition at 0.5 µM: 6.2%
[3]
  IC5: 4.15 µM
  pIC50: 4.62
[4]
  pIC50: 5.71
[5]
  Ratio IC50: 5.8
CHO-MG
  pIC50: 4.95

## Cl.Cl.NCCNCC1CCCCCCCCCCCCCC1
[1]
  inhibition at 0.5 µM: 6.2%
[2]
  inhibition at 1 µM: 26.2%
[3]
  IC5: 0.6 µM
  pIC50: 5.84
[4]
  pIC50: 5.58
[5]
  Ratio IC50: 0.9
CHO-MG
  pIC50: 5.63

## OCC1CCCCCCCCCCCCCC1
[2]
  inhibition at 1 µM: -37.2%
[3]
  IC5: 8.4 µM
  pIC50: 4.38
[4]
  pIC50: < 4.00
[36]
  solubility: Insoluble
CHO-MG
  pIC50: < 4.00

## Cl.Cl.Cl.NCCCNCCCNCC1CCCCCCCCCCCCCC1
[6]
  Activity: 2.84 nmol
[7]
  Activity: 0.09 nmol
Mus musculus [34]
  Activity: 88%
[8]
  Activity: 0.36 nmol
[9]
  Activity: 0.63 nmol
[1]
  inhibition at 0.5 µM: 20.2%
[10]
  Activity: 0.03 nmol
[11]
  Activity: 6.79 nmol
[12]
  Activity: 0.09 nmol
[13]
  Activity: 0.11 nmol
[14]
  Activity: 0.13 nmol
[2]
  inhibition at 1 µM: 29.9%
[15]
  Activity: 0.03 nmol
[16]
  Activity: 0.27 nmol
[17]
  Activity: 0.37 nmol
[18]
  Activity: 1.22 nmol
[3]
  IC5: 80 µM
  pIC50: 4.05
[19]
  Activity: 0.06 nmol
[20]
  Activity: 0.1 nmol
[21]
  Activity: 0.04 nmol
[22]
  Activity: 0.02 nmol
[23]
  Activity: 0.03 nmol
[24]
  Activity: 0.01 nmol
[25]
  Activity: 0.02 nmol
Mus musculus [35]
  Activity: 97%
[26]
  Activity: 0.36 nmol
[27]
  Activity: 0.13 nmol
[28]
  Activity: 0.3 nmol
[29]
  Activity: 0.01 nmol
[30]
  Activity: 0.31 nmol
[31]
  Activity: 0.12 nmol
[32]
  Activity: 0.14 nmol
[5]
  Ratio IC50: 1
[33]
  Activity: 0.22 nmol

## NCCNCCNCCN [TRIENTINE]
[2]
  inhibition at 1 µM: 0%

## Cl.Cl.Cl.NCCCCNCCCCNCc1c2ccccc2cc2ccccc12
[5]
  Ratio IC50: 148

## NCCNCCN
[2]
  inhibition at 1 µM: 0%
